Data on 19 compounds can be found in patent publication US20230257372A1 (CHONG KUN DANG PHARMACEUTICAL CORP., priority 2020, published 2023).

Read-outs that look alike come from different tables or passages of the source. Some results are limits rather than exact numbers.

Assay [1] deals with T1, human recombinant HDAC6 (Homo sapiens, UniProt Q9UBN7).
T1 construct: purchased Calbiochem Inc. 382180
T1 sequence (Q9UBN7 1-1215): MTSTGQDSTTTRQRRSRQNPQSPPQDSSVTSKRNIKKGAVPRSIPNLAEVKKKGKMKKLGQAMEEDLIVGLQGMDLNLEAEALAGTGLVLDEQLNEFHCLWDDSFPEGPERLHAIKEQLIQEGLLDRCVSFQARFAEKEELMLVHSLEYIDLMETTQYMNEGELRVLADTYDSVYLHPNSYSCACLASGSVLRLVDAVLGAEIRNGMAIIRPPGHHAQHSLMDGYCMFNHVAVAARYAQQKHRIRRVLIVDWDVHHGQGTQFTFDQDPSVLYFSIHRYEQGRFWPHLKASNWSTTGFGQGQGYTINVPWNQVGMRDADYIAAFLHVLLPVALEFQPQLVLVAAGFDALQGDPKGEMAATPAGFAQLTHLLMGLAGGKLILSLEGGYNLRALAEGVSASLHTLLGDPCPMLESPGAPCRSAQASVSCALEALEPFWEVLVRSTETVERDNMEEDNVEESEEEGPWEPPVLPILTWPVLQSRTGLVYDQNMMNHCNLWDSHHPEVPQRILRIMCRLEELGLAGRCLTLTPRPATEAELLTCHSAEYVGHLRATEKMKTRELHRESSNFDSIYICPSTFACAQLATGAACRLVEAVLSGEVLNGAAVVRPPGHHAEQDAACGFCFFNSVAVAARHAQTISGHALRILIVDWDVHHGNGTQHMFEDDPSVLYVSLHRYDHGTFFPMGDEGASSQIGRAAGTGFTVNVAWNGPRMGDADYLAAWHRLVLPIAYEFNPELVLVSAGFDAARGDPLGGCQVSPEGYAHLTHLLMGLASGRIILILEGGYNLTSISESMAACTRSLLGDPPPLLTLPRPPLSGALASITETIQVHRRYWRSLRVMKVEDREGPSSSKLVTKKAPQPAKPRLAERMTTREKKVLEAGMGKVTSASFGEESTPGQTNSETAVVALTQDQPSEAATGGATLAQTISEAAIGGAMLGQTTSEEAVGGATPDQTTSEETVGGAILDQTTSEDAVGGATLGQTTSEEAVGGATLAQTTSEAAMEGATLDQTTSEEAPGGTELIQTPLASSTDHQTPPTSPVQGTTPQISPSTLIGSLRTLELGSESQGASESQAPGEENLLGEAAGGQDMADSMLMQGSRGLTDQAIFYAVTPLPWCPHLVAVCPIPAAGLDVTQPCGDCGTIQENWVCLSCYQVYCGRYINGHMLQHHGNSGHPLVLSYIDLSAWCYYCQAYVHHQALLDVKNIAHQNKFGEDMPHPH
Kind of assay: HDAC6 enzyme activity inhibition (HDAC Fluorimetric Drug Discovery Kit). In kind it is biochemical. The procedure, abridged:
(§1)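 Compounds in 5-fold dilution series were incubated with […] enzyme and 10 μM substrate at 30° C for 60 minutes. Fluor de Lys Developer II was then added for 30 minutes to stop the reaction and develop the fluorescent signal.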

Assay [2] addresses T2, human recombinant HDAC1 (Homo sapiens, UniProt Q13547).
T2 construct: purchased Enzo Life Science, Inc. BML-SE456
Kind of assay: HDAC1 enzyme activity inhibition (HDAC Fluorimetric Drug Discovery Kit). The settings on record: read-out: HDAC1. The assay is classed as biochemical. The procedure, abridged: as §1

[3] abbreviates: human recombinant HDAC6, same protocol as HDAC1.
The mark [4] stands for this setting: human recombinant HDAC1, Fluor de Lys substrate, 30° C. 60 minutes.
Where [5] appears, read: human recombinant HDAC6, IC50 calculated with GraphPad Prism.
Setting [6] is: human recombinant HDAC1, IC50 calculated with GraphPad Prism.

T2 sequence (Q13547 whole entry): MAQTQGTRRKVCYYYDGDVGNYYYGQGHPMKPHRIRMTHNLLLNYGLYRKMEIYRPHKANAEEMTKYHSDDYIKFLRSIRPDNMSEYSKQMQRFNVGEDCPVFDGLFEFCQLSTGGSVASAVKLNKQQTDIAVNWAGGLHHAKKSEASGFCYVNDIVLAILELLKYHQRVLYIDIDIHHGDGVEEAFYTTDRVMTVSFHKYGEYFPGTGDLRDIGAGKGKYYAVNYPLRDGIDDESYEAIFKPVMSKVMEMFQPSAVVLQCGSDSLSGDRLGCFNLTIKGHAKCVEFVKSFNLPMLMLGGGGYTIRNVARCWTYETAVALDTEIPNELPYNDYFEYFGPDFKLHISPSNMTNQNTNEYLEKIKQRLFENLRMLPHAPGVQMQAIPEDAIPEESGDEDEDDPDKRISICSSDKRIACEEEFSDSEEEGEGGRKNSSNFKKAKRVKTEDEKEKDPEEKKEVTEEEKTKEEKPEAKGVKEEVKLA

Consider `CC1CCN(Cc2ccc(-c3cn(Cc4ncc(-c5nnc(C(F)F)o5)cc4F)nn3)s2)CC1` [Compound 18310, 2-(difluoromethyl)-5-(5-fluoro-6-((4-(5-((4-methylpiperidin-1-yl)methyl)thiophen-2-yl)-1H-1,2,3-triazol-1-yl)methyl)pyridin-3-yl)-1,3,4-oxadiazole], for which, in assay [1] (HDAC6 over HDAC1), the “HDAC6 selectivity (fold)” value is on record as 986 fold. Besides, the results for the IC50 in assay [1] (setting [3]) and in assay [2] (setting [4]) were 50.7 nM and over 50000 nM, respectively.

Turning to `Fc1cc(-c2nnc(C(F)F)o2)cnc1Cn1cc(-c2ccc(CN3CCC3)cn2)nn1` [Compound 18622, 2-(6-((4-(5-(azetidin-1-ylmethyl)pyridin-2-yl)-1H-1,2,3-triazol-1-yl)methyl)-5-fluoropyridin-3-yl)-5-(difluoromethyl)-1,3,4-oxadiazole], the “HDAC6 selectivity (fold)” value in assay [1] (HDAC6 over HDAC1) amounted to 606 fold. The IC50 in assay [1] (setting [3]) is 82.4 nM; in assay [2] (setting [4]), over 50000 nM.

In the case of `O=C(O)c1ccc(-c2cn(Cc3ccc(-c4nnc(C(F)F)o4)cc3F)nn2)cc1` [Compound 3732, 4-(1-(4-(5-(difluoromethyl)-1,3,4-oxadiazol-2-yl)-2-fluorobenzyl)-1H-1,2,3-triazol-4-yl)benzoic acid], in assay [1] (HDAC1 IC50 / HDAC6 IC50), the “HDAC6 selectivity (fold)” value is reported as 74 fold. Also, the results for the IC50 in assay [1] (setting [5]) and in assay [2] (setting [6]) were 672 nM and over 50000 nM, respectively.

`Fc1cc(-c2nnc(C(F)F)o2)ccc1Cn1cc(-c2cccc(CN3CCC3)c2)nn1` [Compound 4402, 2-(4-((4-(3-(azetidin-1-ylmethyl)phenyl)-1H-1,2,3-triazol-1-yl)methyl)-3-fluorophenyl)-5-(difluoromethyl)-1,3,4-oxadiazole]: the “HDAC6 selectivity (fold)” value in assay [1] (HDAC1 IC50 / HDAC6 IC50) was 677 fold. Further, the figures for the IC50 in assay [1] (setting [5]) and in assay [2] (setting [6]) were 73.8 nM and over 50000 nM, respectively.

On to `FC(F)c1cccc(-c2cn(Cc3ccc(-c4nnc(C(F)F)o4)cc3)nn2)c1` [Compound 4487, 2-(difluoromethyl)-5-(4-((4-(3-(difluoromethyl)phenyl)-1H-1,2,3-triazol-1-yl)methyl)phenyl)-1,3,4-oxadiazole], for which the “HDAC6 selectivity (fold)” value in assay [1] (HDAC1 IC50 / HDAC6 IC50) is listed as 627 fold. For the same compound, the figures for the IC50 in assay [1] (setting [5]) and in assay [2] (setting [6]) were 79.7 nM and over 50000 nM, respectively.

For the compound `CCN1CC(N2CCc3cc(-c4cn(Cc5ccc(-c6nnc(C(F)F)o6)cc5F)nn4)ccc3C2)C1` [Compound 4392, 2-(difluoromethyl)-5-(4-((4-(2-(1-ethylazetidin-3-yl)-1,2,3,4-tetrahydroisoquinolin-6-yl)-1H-1,2,3-triazol-1-yl)methyl)-3-fluorophenyl)-1,3,4-oxadiazole], the “HDAC6 selectivity (fold)” value in assay [1] (HDAC1 IC50 / HDAC6 IC50) was 1262 fold. Moreover, the IC50 in assay [1] (setting [5]) is 39.6 nM; in assay [2] (setting [6]), over 50000 nM.

`Fc1cnccc1-c1cn(Cc2ccc(-c3nnc(C(F)F)o3)cn2)nn1` [Compound 4184, 2-(difluoromethyl)-5-(6-((4-(3-fluoropyridin-4-yl)-1H-1,2,3-triazol-1-yl)methyl)pyridin-3-yl)-1,3,4-oxadiazole]: in assay [1] (HDAC1 IC50 / HDAC6 IC50), the “HDAC6 selectivity (fold)” value was 1291 fold. Further, the IC50 is 38.7 nM in assay [1] (setting [5]) and over 50000 nM in assay [2] (setting [6]).

For `CC(C)N1CC(c2cccc(-c3cn(Cc4ccc(-c5nnc(C(F)F)o5)cc4F)nn3)c2)C1` [Compound 4461, 2-(difluoromethyl)-5-(3-fluoro-4-((4-(3-(1-isopropylazetidin-3-yl)phenyl)-1H-1,2,3-triazol-1-yl)methyl)phenyl)-1,3,4-oxadiazole], the “HDAC6 selectivity (fold)” value in assay [1] (HDAC1 IC50 / HDAC6 IC50) is listed as 759 fold. For the same compound, the IC50 was 65.8 nM in assay [1] (setting [5]) and over 50000 nM in assay [2] (setting [6]).

For `Fc1cc(-c2cn(Cc3ncc(-c4nnc(C(F)F)o4)cc3F)nn2)ccc1CN1CCC1` [Compound 18947, 2-(6-((4-(4-(azetidin-1-ylmethyl)-3-fluorophenyl)-1H-1,2,3-triazol-1-yl)methyl)-5-fluoropyridin-3-yl)-5-(difluoromethyl)-1,3,4-oxadiazole], the “HDAC6 selectivity (fold)” value in assay [1] (HDAC6 over HDAC1) was 1262 fold. The IC50 in assay [1] (setting [3]) is 39.6 nM; in assay [2] (setting [4]), over 50000 nM.

For the compound `CN1CCC(F)(c2cn(Cc3ccc(-c4nnc(C(F)F)o4)cn3)nn2)CC1` [Compound 4005, 2-(difluoromethyl)-5-(6-((4-(4-fluoro-1-methylpiperidin-4-yl)-1H-1,2,3-triazol-1-yl)methyl)pyridin-3-yl)-1,3,4-oxadiazole], the “HDAC6 selectivity (fold)” value in assay [1] (HDAC1 IC50 / HDAC6 IC50) came out at 379 fold. The IC50 in assay [1] (setting [5]) was 132 nM; in assay [2] (setting [6]), over 50000 nM.

Consider `CN(C)c1cccc(-c2cn(Cc3ccc(-c4nnc(C(F)F)o4)cn3)nn2)c1` [Compound 3824, 3-(1-((5-(5-(difluoromethyl)-1,3,4-oxadiazol-2-yl)pyridin-2-yl)methyl)-1H-1,2,3-triazol-4-yl)-N,N-dimethylaniline], for which the “HDAC6 selectivity (fold)” value in assay [1] (HDAC1 IC50 / HDAC6 IC50) is 2439 fold. Besides, the IC50 in assay [1] (setting [5]) was 20.5 nM; in assay [2] (setting [6]), over 50000 nM.

`FC(F)c1nnc(-c2ccc(Cn3cc(-c4ccc5[nH]cnc5c4)nn3)nc2)o1` [Compound 3843, 2-(6-((4-(1H-benzo[d]imidazol-5-yl)-1H-1,2,3-triazol-1-yl)methyl)pyridin-3-yl)-5-(difluoromethyl)-1,3,4-oxadiazole]: the “HDAC6 selectivity (fold)” value in assay [1] (HDAC1 IC50 / HDAC6 IC50) worked out at 5952 fold. Also, the IC50 in assay [1] (setting [5]) was 8.4 nM; in assay [2] (setting [6]) it was over 50000 nM.

For the compound `FC(F)c1nnc(-c2ccc(Cn3cc(-c4ccco4)nn3)nc2)o1` [Compound 3861, 2-(difluoromethyl)-5-(6-((4-(furan-2-yl)-1H-1,2,3-triazol-1-yl)methyl)pyridin-3-yl)-1,3,4-oxadiazole], the “HDAC6 selectivity (fold)” value in assay [1] (HDAC1 IC50 / HDAC6 IC50) is 922 fold. The IC50 in assay [1] (setting [5]) is 54.2 nM; in assay [2] (setting [6]), over 50000 nM.

`Fc1cc(-c2nnc(C(F)F)o2)ccc1Cn1cc(-c2cnc3[nH]ccc3c2)nn1` [Compound 4524, 2-(4-((4-(1H-pyrrolo[2,3-b]pyridin-5-yl)-1H-1,2,3-triazol-1-yl)methyl)-3-fluorophenyl)-5-(difluoromethyl)-1,3,4-oxadiazole]: the “HDAC6 selectivity (fold)” value in assay [1] (HDAC6 over HDAC1) is recorded as 6024 fold. Besides, the IC50 in assay [1] (setting [3]) was 8.3 nM; in assay [2] (setting [4]), over 50000 nM.

In the case of `FC(F)c1nnc(-c2ccc(Cn3cc(C4(F)CCOC4)nn3)nc2)o1` (stereo not drawn) [Compound 4281, 2-(difluoromethyl)-5-(6-((4-(3-fluorotetrahydrofuran-3-yl)-1H-1,2,3-triazol-1-yl)methyl)pyridin-3-yl)-1,3,4-oxadiazole], the “HDAC6 selectivity (fold)” value in assay [1] (HDAC1 IC50 / HDAC6 IC50) stood at 412 fold. Besides, the IC50 was 121 nM in assay [1] (setting [5]) and over 50000 nM in assay [2] (setting [6]).

With `Cc1nc(-c2ccccc2)cn1Cc1ccc(-c2nnc(C(F)F)o2)cn1` [Compound 3945, 2-(difluoromethyl)-5-(6-((2-methyl-4-phenyl-1H-imidazol-1-yl)methyl)pyridin-3-yl)-1,3,4-oxadiazole], the “HDAC6 selectivity (fold)” value in assay [1] (HDAC1 IC50 / HDAC6 IC50) is 258 fold. Besides, the IC50 in assay [1] (setting [5]) is 193 nM; in assay [2] (setting [6]), over 50000 nM.

With `CC(C)(C)OC(=O)N1CCC(F)(c2cn(Cc3ccc(-c4nnc(C(F)F)o4)cn3)nn2)CC1` [Compound 3999, Tert-butyl 4-(1-((5-(5-(difluoromethyl)-1,3,4-oxadiazol-2-yl)pyridin-2-yl)methyl)-1H-1,2,3-triazol-4-yl)-4-fluoropiperidin-1-carboxylate], the “HDAC6 selectivity (fold)” value in assay [1] (HDAC1 IC50 / HDAC6 IC50) is reported as 575 fold. The IC50 was 86.9 nM in assay [1] (setting [5]) and over 50000 nM in assay [2] (setting [6]).

With `Cn1c(Cc2ccc(-c3nnc(C(F)F)o3)cc2)nnc1-c1ccccc1` [Compound 3981, 2-(difluoromethyl)-5-(4-((4-methyl-5-phenyl-4H-1,2,4-triazol-3-yl)methyl)phenyl)-1,3,4-oxadiazole], the “HDAC6 selectivity (fold)” value in assay [1] (HDAC1 IC50 / HDAC6 IC50) worked out at 41 fold. The IC50 was 1200 nM in assay [1] (setting [5]) and over 50000 nM in assay [2] (setting [6]).

Take `CC(C)N1CCC(c2cccc(-c3cn(Cc4ccc(-c5nnc(C(F)F)o5)cc4F)nn3)c2)CC1` [Compound 4292, 2-(difluoromethyl)-5-(3-fluoro-4-((4-(3-(1-isopropylpiperidin-4-yl)phenyl)-1H-1,2,3-triazol-1-yl)methyl)phenyl)-1,3,4-oxadiazole]: the “HDAC6 selectivity (fold)” value in assay [1] (HDAC1 IC50 / HDAC6 IC50) stood at 967 fold. Further, the IC50 was 51.7 nM in assay [1] (setting [5]) and over 50000 nM in assay [2] (setting [6]).
